Test [1] concerns PKCθ-A/E-induced CD28RE/AP-1. Briefly: CD28RE/AP-1-Luc reporter induced by constitutively active PKCθ-A/E in Jurkat cells. Type of test: cell-based, human. Conditions: cultured 16 hr, MG132 0, 5, 10, 20 μM (FIG. 5b). As for the experimental part: (§1) Jurkat cells were transfected with an empty vector (−) or constitutively active PKCθ (10 μg) together with NF-κB-Luc (FIG. 5a) CD28RE/AP-1-Luc (FIG. 5b), or AP-1-Luc (FIG. 5c) reporter constructs (5 μg each). The cells were cultured for 16 hr with the indicated concentrations of the […] MG132 (0, 5, 10, 20 μM), lysed, and luciferase activity was quantified. FIG. 5d: Jurkat cells were transfected with wild type IKKα (5 μg) or IKKβ (2 μg) together with an empty vector (0) or increasing amounts of constitutively active PKCθ. Twenty-four hr later, the cells were stimulated with anti-CD3/CD28 antibodies or with TNFα. Immunoprecipitated IKKα or IKKβ were subjected to an in vitro kinase assay. Phosphorylated GST-IκBα/1-62 was detected by autoradiography (top panels). […] After 24 hr, cells were lysed and normalized luciferase activity was determined. FIG. 5f: The expression level of the transfected IKKs or PKCθ was assessed by Western blotting using c-Myc-(IKKα), Flag-(IKKβ), or PKCθ-specific antibodies.
(§2) Cell Culture, Transfection, and Reporter Assays. […] Transfected Jurkat cells were harvested after 24 hr, washed twice with PBS, lysed, and luciferase or β-galactosidase activities were determined. The results were expressed as arbitrary luciferase units normalized to β-galactosidase activity in the same cells. […]

The next test has as its system PKCθ-A/E-induced NF-κB. Description: NF-κB-Luc reporter induced by constitutively active PKCθ-A/E in Jurkat cells. Type of test: cell-based, human. Conditions: cultured 16 hr, MG132 0, 5, 10, 20 μM (FIG. 5a). As for the experimental part: as §1, §2
For another test, the system named is BAD (Ser-136, Ser-112). Description: Phosphorylation of BAD induced by Fas or combined CD3/CD28 ligation. It counts as cell-based. The source says: Thus, the invention provides methods for identifying inhibitors of PKCθ activity by determining the ability of a test agent to inhibit BAD phosphorylation by PKCθ or a BAD activity.
Test [2] has as its target T1, PKCθ (Homo sapiens, UniProt Q04759). As to conditions: in vitro and in intact T cells; cited from earlier work.
In test [3] the test system is CD28RE/AP-1 element of the IL-2 promoter. Briefly: CD28RE/AP-1-Luc reporter assay, anti-CD3/CD28-stimulated Jurkat T cells. Type of test: cell-based. As to conditions: Homo sapiens, read-out: inhibition of anti-CD3/CD28-stimulated activity of CD28RE/AP-1. The protocol: (§3) FIG. 4a: Jurkat T cells were cotransfected with CD28RE/AP-1-Luc (10 μg) and β-galactosidase plasmid (2 μg) reporters. Twenty hr later, cells were stimulated for 10 min with CD3- plus CD28-specific antibodies, in the presence or absence of rottlerin (Rott; 30 μM) or Gö6976 (Gö; 0.5 μM). Luciferase activity in cell lysates was determined. FIG. 4b Jurkat cells were incubated (15 min at 37° C.) in the absence or presence of rottlerin or Gö6976, and then stimulated with anti-CD3/CD28 antibodies or with TNFα (10 ng/ml) for the indicated times. Nuclear and cytoplasmic extracts were prepared, and protein from each fraction (5 μg) was analyzed by Western blotting with an anti-RelA antibody. FIG. 4c: Wild-type PKCθ-transfected Jurkat T cells were stimulated as in (a). Cell lysates were immunoprecipitated (IP) with normal rabbit serum (NRS) or with an anti-PKCθ antibody, and the in vitro enzymatic activity of PKCθ was measured in the presence or absence of rottlerin or Gö6976 (top panel). The membrane was immunoblotted with a PKCθ-specific antibody (bottom panel).
Cell Culture, Transfection, and Reporter Assays. […] Transfected Jurkat cells were harvested after 24 hr, washed twice with PBS, lysed, and luciferase or β-galactosidase activities were determined. The results were expressed as arbitrary luciferase units normalized to β-galactosidase activity in the same cells.
Background: Reporter assays use an easily measured gene product as a stand-in for the process of interest.

For the next test, the system named is TNFα-induced NF-κB. Description: NF-κB activity induced by TNFα in Jurkat cells. It counts as cell-based, human. As to conditions: TNFα 10 ng/ml (FIG. 4b). The protocol: as §3
(§4) Subcellular Fractionation. To determine PKCθ redistribution, cells were fractionated into cytosolic or membrane fractions as described by Meller (1996) Mol. Cell. Biol. 16:5782-5791; and, SDS-PAGE-resolved proteins were immunoblotted with an HRP-conjugated anti-PKCθ monoclonal antibody (Transduction Laboratories). […]

For test [4], the target named is T1, PKCθ. Briefly: In vitro kinase assay of immunoprecipitated PKCθ (MBP substrate). Conditions: immunoprecipitated PKCθ from wild-type PKCθ-transfected Jurkat T cells, inhibitor added to kinase reaction (FIG. 4c). Type of test: biochemical. Details: expressed in transfected cells; host or cells: Jurkat (E6.1) human leukemic T cells. The protocol: as §3
Kinase Assays. […] ATP incorporation was determined using a STORM 860™ PhosphorImager (Molecular Dynamics). […]

The subject of a further test is T cells. Briefly: Fas-mediated T cell apoptosis. It counts as cell-based. The source says:
PKCθ mediates a selective T cell survival signal via phosphorylation of BAD, a Bcl-2 family member. PKC-activating phorbol esters protect various cell types, including T cells, from apoptosis induced by the interaction of Fas with its ligand. However, before the instant invention, the mechanism of this protective effect as well as the identity of the PKC isoform(s) involved in this process were poorly understood. Studies analyzed the role of PKCθ selectively expressed in T lymphocytes in protecting T cells from Fas-mediated apoptosis. […] These events preceded the onset of cell apoptosis. […] Thus, the invention provides methods for identifying inhibitors of PKCθ activity by determining the ability of a test agent to inhibit PKCθ selective protection of T cells from Fas-mediated apoptosis.

For test [5], the system named is NF-κB RelA (p65) nuclear translocation. Description: Nuclear translocation of RelA (p65) after anti-CD3/CD28 stimulation, Western blot of nuclear/cytoplasmic extracts. Conditions: Jurkat cells preincubated 15 min at 37° C., anti-CD3/CD28 stimulation (FIG. 4b). It counts as cell-based, human. The protocol: as §3, §4
(A western blot detects proteins with antibodies after separation by electrophoresis.)

“Also recorded” adds a separate entry of the source. Residues, ends and D or L forms follow the SMILES beside them. *: point of attachment. Cbz = O=C(OCc1ccccc1)*

T1 sequence (Q04759 whole entry): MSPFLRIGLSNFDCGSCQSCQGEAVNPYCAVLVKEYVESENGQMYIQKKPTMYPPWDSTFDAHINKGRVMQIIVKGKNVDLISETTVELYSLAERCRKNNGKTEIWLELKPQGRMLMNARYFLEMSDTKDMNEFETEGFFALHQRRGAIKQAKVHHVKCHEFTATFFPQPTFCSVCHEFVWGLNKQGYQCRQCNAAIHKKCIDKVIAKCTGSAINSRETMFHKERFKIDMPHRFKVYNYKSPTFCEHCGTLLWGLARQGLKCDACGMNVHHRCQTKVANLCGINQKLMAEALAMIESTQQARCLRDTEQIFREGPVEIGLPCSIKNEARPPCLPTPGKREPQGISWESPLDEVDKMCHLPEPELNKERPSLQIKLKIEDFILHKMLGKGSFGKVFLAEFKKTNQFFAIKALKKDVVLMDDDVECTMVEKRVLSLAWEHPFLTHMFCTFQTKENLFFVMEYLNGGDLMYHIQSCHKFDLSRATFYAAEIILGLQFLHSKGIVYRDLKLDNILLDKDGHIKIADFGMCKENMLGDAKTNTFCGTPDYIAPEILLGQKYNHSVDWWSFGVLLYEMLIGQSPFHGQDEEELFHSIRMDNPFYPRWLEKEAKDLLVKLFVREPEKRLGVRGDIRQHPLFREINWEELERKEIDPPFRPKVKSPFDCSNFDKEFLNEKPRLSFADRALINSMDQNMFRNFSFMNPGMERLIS

Consider `CC(C)C[C@@H](C=O)NC(=O)[C@H](CC(C)C)NC(=O)[C@H](CC(C)C)NC(=O)OCc1ccccc1` [MG132] (Cbz-Leu-Leu-Leu-aldehyde), for which the “PKCθ-A/E-induced activation of CD28RE/AP-1” value in test [1] is listed as “blocked in a dose-dependent manner; also recorded: inhibited”. For the same compound, the “PKCθ-A/E-induced activation of NF-κB” value in the test with PKCθ-A/E-induced NF-κB is on record as “blocked in a dose-dependent manner”.
Regarding `CC(=O)c1c(O)c(C)c(O)c(Cc2c(O)c3c(c(C(=O)/C=C/c4ccccc4)c2O)OC(C)(C)C=C3)c1O` [rottlerin], in the test on BAD (Ser-136, Ser-112), the “phosphorylation of BAD on Ser-136 (and to a lesser extent on Ser-112)” value is recorded as “selectively blocked”. The “inhibition of PKCθ function” value on PKCθ [2] is listed as “inhibits PKCθ function”. For the same compound, the inhibition at 30 µM in [3] was around 80%. The “inhibition of NF-κB activity induced by TNFα” value in the test on TNFα-induced NF-κB is reported as “did not inhibit”. Besides, the “inhibition of CD3/CD28-induced PKCθ activity” value against PKCθ [4] is on record as “considerably more effective than Gö6976”. Further, the “synergy with an anti-Fas antibody to induce rapid T cell apoptosis” value in the test with T cells is on record as “synergized”. In test [5], the “receptor-stimulated nuclear translocation of RelA (p65)” value is given as “essentially blocked”.

(Values after US20020068271A1, “Methods for identifying agents capable of modulating protein kinase C theta (PKC0) activity” (priority 1999, published 2002).)
